Measurements reported in patent US8475775B1, “Retinoids and use thereof” (The UAB Research Foundation, priority 2012, dated 2013).

Tests used:
Format in all cases: in vivo
[1] = test system: hairless SKH1-E mice; assay: Skin irritation on dorsal skin (erythema, desquamation, lesions/abrasion), visual score; details: for Mean skin irritation score: scale of 0-4
Experimental: (§1) UAB30, 4Me-UAB30 and UAB111 at 0.1% and 0.3%, tazarotene at 0.1% and vehicle were applied topically on approximately 8 cm2 (2×4 cm) of the dorsal skin (100 μL) and on the right ear (20 μL).
(§2) The test compounds were UAB30, 4Me-UAB30 and UAB111. Tazarotene (0.1% cream) was purchased by Ricerca Taiwan Ltd. The three compounds at 0.1% and 0.3%, Tazarotene (0.1% cream) and vehicle (70% ethanol/30% propylene glycol) were each administered topically on the back (100 μL) and on the right ear (20 μL) once daily for two weeks.
(§3) Female SKH1-E hairless mice (Crl:SKH1-Hrhr) weighing 22±2 g were used. The animals were divided into groups of 5 each. Once a day, 100 μl of vehicle, tazarotene, and test articles were applied on the back with a micropipette and smeared evenly with gloved finger on approximately 8 cm2 (2×4 cm) of the dorsal skin; 20 μl was applied to the right ear. The tested animals were treated for two consecutive weeks. Body weight was monitored twice a week.
Erythema, desquamation (skin flaking), and skin lesions/abrasion on dorsal skin were assessed visually in individual animals at the end of a 2-week treatment and scored on a scale of 0 to 4+, with 4+being maximal. • 0: Normal • 1+: Mild erythema • 2+: Moderate erythema • 3+: Severe erythema/Desquamation • 4+: Lesions/abrasion.

[2] = test system: hairless SKH1-E mice; assay: Epidermal hyperplasia on dorsal skin (marker of retinoid activity), 14-day topical application; details: for epidermal hyperplasia grading, average: dorsal skin, scale of 0=none to 5=marked
Experimental: as §1, §2, §3
(§4) Epidermal hyperplasia on the dorsal skin was used as a marker of retinoid activity. For histological evaluation, mice were sacrificed on day 15. The dorsal skin was dissected and stretched to the natural size on the filter. Punch biopsies (ED 8 mm) were obtained, fixed in 10% buffered formalin, and embedded in paraffin. Five micro thick sections were cut, stained with H&E, and a representative section of each biopsy was selected for histological evaluation.
(§5) For histological evaluation, the dorsal skin was dissected and stretched to the natural size on the filter. Punch biopsies (ED 8 mm) were obtained, fixed in 10% buffered formalin, and embedded in paraffin. Five micro thick sections were cut, stained with H&E, and a representative section of each biopsy was selected for histological evaluation. Right ear was harvested on day 15 for measurements of myeloperoxidase activity by mouse MPO ELISA kit, a measure of neutrophil infiltrates.

[3] = test system: hairless SKH1-E mice; assay: Ear myeloperoxidase (MPO) by mouse MPO ELISA kit, measure of neutrophil infiltrates; details: harvested day 15
Experimental: as §1, §2, §3, §5

[4] = test system: hairless SKH1-E mice; assay: Histopathology of dorsal skin: hyperkeratosis/serocellular crust, utriculus formation, sebaceous gland hyperplasia; details: of 5 mice per group
Experimental: as §3, §4, §5

[5] = 0.1% topical once daily for 14 days
[6] = 0.1% topical 20 μL on right ear for 14 days

| Compound | Mean skin irritation score ([1]; 0.1% topical for 14 days) | epidermal hyperplasia grading, average [2, 5] | ear Myeloperoxidase (MPO), marker of neutrophil infiltration [3, 6] | skin irritation, observation in words ([1]; 0.1% topical for 14 days, groups of 5) | Mean skin irritation score ([1]; 0.3% topical for 14 days) | epidermal hyperplasia grading, average ([2]; 0.3% topical once daily for 14 days) | incidence of epidermal hyperplasia compared to 0.1% Tazarotene ([2]; 14-day topical, histopathology, concentration not specified (0.1% and 0.3% groups)) | Hyperkeratosis and/or serocellular crust, number of mice affected ([4]; 0.1% topical for 14 days) | Hyperkeratosis and/or serocellular crust, number of mice affected ([4]; 0.3% topical for 14 days) | ear Myeloperoxidase (MPO), marker of neutrophil infiltration ([3]; 0.3% topical 20 μL on right ear for 14 days) |
| --- | --- | --- | --- | --- | --- | --- | --- | --- | --- | --- |
| CCOC(=O)c1ccc(C#Cc2ccc3c(c2)C(C)(C)CCS3)nc1 [Tazarotene, reference compound] | 3 | 2 | marked increase | – | – | – | – | – | – | – |
| CC(=C/C=C/C(C)=C/C(=O)O)/C=C1\CCCc2ccccc21 [UAB30, (2E,4E,6E,8E)-8-(3′,4′-Dihydro-1′(2′H)-naphthalen-1′-ylidene)3,7-dimethyl-2,4,6-octatrienoic acid] | – | 1.8 | no effect | did not cause any irritation | 1 | 2 | comparable incidence | 1 | not reported | no effect |
